This is an account of results in patent US10336774B2, “N-azaspirocycloalkane substituted N-heteroaryl compounds and compositions for inhibiting the activity of SHP2” (NOVARTIS AG, priority 2014, dated 2019).

The target in this test is SHP2 (Homo sapiens (Human), UniProt Q06124). The experiment in a line: SHP2 Allosteric Inhibition Assay. The test is classed as biochemical. The source says:
SHP2 Allosteric Inhibition Assay SHP2 is allosterically activated through binding of bis-tyrosyl-phorphorylated peptides to its Src Homology 2 (SH2) domains. The latter activation step leads to the release of the auto-inhibitory interface of SHP2, which in turn renders the SHP2 protein tyrosine phosphatase (PTP) active and available for substrate recognition and reaction catalysis. The catalytic activity of SHP2 was monitored using the surrogate substrate DiFMUP in a prompt fluorescence assay format. […] After 30-60 minutes incubation at 25° C., the surrogate substrate DiFMUP (Invitrogen, cat# D6567) was added to the reaction and incubated at 25° C. for 30 minutes. […] The inhibitor dose response curves were analyzed using normalized IC50 regression curve fitting with control based normalization.

Where [1] appears, read: 0.5 nM SHP2 activated with 0.5 μM peptide IRS1_pY1172(dPEG8)pY1222, surrogate substrate DiFMUP, fluorescence.

The structures appear in SMILES notation.

SHP2, sequence (Q06124 whole entry): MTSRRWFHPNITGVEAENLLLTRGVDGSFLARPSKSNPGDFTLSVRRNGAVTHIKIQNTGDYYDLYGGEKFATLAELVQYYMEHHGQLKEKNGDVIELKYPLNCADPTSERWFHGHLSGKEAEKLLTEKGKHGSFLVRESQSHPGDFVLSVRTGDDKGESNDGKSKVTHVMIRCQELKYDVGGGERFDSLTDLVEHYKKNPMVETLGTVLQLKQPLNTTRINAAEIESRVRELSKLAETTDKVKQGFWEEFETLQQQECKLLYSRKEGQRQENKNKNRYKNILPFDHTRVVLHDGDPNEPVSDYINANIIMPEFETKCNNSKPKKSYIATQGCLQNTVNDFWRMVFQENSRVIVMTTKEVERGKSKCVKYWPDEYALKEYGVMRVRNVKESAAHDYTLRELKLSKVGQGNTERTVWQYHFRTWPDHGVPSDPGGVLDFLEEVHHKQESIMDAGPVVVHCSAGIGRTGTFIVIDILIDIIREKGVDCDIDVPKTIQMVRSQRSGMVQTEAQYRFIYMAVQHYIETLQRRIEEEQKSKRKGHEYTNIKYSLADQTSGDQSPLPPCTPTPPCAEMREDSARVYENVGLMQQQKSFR

For `Nc1nc(N2CCC3(CC2)COC[C@H]3N)cnc1Sc1ccnnc1Cl` [Example 55], the IC50 under setting [1] came out at 73 nM.
`Nc1nc(N2CCC3(CC2)C[C@H](F)C[C@H]3N)cnc1Sc1ccnc(N)c1Cl` [Example 92] yielded a half-maximal inhibitory concentration (IC50) under setting [1] of 10 nM.
`Nc1nc(N2CCC3(CC2)C[C@@H](F)C[C@H]3N)cnc1Sc1ccnc(N)c1Cl` [Example 91] registered an IC50 under setting [1] of 8 nM.
The compound `C[C@H]1C[C@@H](N)C2(CCN(c3cnc(Sc4ccnc(N)c4Cl)c(N)n3)CC2)C1` [Example 70, (1R,3R)-8-(6-amino-5-((2-amino-3-chloropyridin-4-yl)thio)pyrazin-2-yl)-3-methyl-8-azaspiro[4.5]decan-1-amine] had an IC50 under setting [1] of 5 nM.
Under setting [1], `Nc1nc(N2CCC3(CC2)CC(F)(F)C[C@H]3N)cnc1Sc1ccnc(N)c1Cl` [Example 67] registered an IC50 of 10 nM.
The compound `Nc1nc(N2CCC3(CCCC3N)CC2)cnc1-c1cccc(Cl)c1Cl` (stereo not shown) [Example 7] yielded an IC50 under setting [1] of 73 nM.
Under setting [1], `CN(C)c1nccc(Sc2ncc(N3CCC4(CCC[C@H]4N)CC3)nc2N)c1Cl` [Example 75, (R)-8-(6-amino-5-((3-chloro-2-(dimethylamino)pyridin-4-yl)thio)pyrazin-2-yl)-8-azaspiro[4.5]decan-1-amine] showed an IC50 of 10 nM.
On the same count and under the same terms, with `C[C@@H]1C[C@H](N)C2(CCN(c3cnc(Sc4cccnc4C(F)(F)F)c(N)n3)CC2)C1` [Example 62] the figure was 100 nM; with `Nc1nc(N2CCC3(CCC[C@H]3N)CC2)cnc1Sc1ccncc1Cl` [Example 28, (R)-8-(6-amino-5-((3-chloropyridin-4-yl)thio)pyrazin-2-yl)-8-azaspiro[4.5]decan-1-amine], 23 nM.
Consider `Nc1nc(N2CCC3(CCCC3N)CC2)nnc1Sc1cccnc1C(F)(F)F` (stereo in doubt) [Example 23, (S)-8-(5-amino-6-((2-(trifluoromethyl)pyridin-3-yl)thio)-1,2,4-triazin-3-yl)-8-azaspiro[4.5]decan-1-amine], for which the IC50 under setting [1] amounted to 290 nM.
Still for that read-out and setting: the result for `Nc1nc(N2CCC3(CCCCC3N)CC2)cnc1-c1cccc(Cl)c1Cl` (stereo not shown) [Example 6] reads 74 nM.
Still for that read-out and setting: the result for `NC(=O)c1cccc(Sc2ncc(N3CCC4(CCC[C@H]4N)CC3)nc2N)c1Cl` [Example 40, (R)-3-((3-amino-5-(1-amino-8-azaspiro[4.5]decan-8-yl)pyrazin-2-yl)thio)-2-chlorobenzamide] reads 16 nM; that for `Nc1nc(N2CCC3(CCC[C@H]3N)CC2)cnc1Sc1ccnnc1Cl` [Example 76], 78 nM; that for `Nc1nc(N2CC3(CCC3N)C2)cnc1-c1cccc(Cl)c1Cl` (stereo not shown) [Example 9], 1110 nM.
Under setting [1], `C[C@@H]1C[C@@H](N)C2(CCN(c3cnc(Sc4cccnc4C(F)(F)F)c(N)n3)CC2)C1` [Example 61] displayed an IC50 of 7 nM.
Same read-out and setting: the result for `Nc1nc(N2CCC3(CCC3N)CC2)cnc1-c1cccc(Cl)c1Cl` (stereo not shown) [Example 16] reads 145 nM; that for `Nc1nc(N2CCC3(CCC[C@H]3N)CC2)cnc1Sc1cc[nH]c(=O)c1Cl` [Example 81, (R)-4-((3-amino-5-(1-amino-8-azaspiro[4.5]decan-8-yl)pyrazin-2-yl)thio)-3-chloropyridin-2(1H)-one], 20 nM; that for `NC1=NC(=O)CC12CCN(c1cnc(Sc3cccnc3C(F)(F)F)c(N)n1)CC2` [Example 50], 610 nM.
Compound `Nc1nc(N2CCC3(CC2)COC[C@H]3N)cnc1Sc1ccnc(Cl)c1Cl` [Example 63] yielded an IC50 under setting [1] of 7 nM.
For the compound `Nc1nc(N2CCC3(CCC[C@H]3N)CC2)cnc1Sc1ccncc1C(F)(F)F` [Example 80], it took 42 nM to reach half-maximal inhibition under setting [1] (IC50).
The same measure, in the same setting: the result for `NC(=O)c1nc(Sc2cccnc2C(F)(F)F)c(N)nc1N1CCC2(CC[C@@H]2N)CC1` [Example 22] reads 53 nM; that for `Nc1cc(Sc2ncc(N3CCC4(CCC[C@H]4N)CC3)nc2N)c(Cl)cn1` [Example 51], 10 nM; that for `Nc1nc(N2CCC3(CC2)C[C@H](O)C[C@H]3N)cnc1Sc1cccnc1C(F)(F)F` [Example 43], 6 nM.
Still for that read-out and setting: the result for `Nc1nc(N2CCC3(CC2)C[C@@H](O)C[C@H]3N)cnc1Sc1ccnc(Cl)c1Cl` [Example 58] reads 4 nM; that for `Nc1nc(N2CCC3(CC2)CCC(F)(F)[C@@H]3N)cnc1Sc1cccnc1C(F)(F)F` (racemic) [Example 83b, (R) and (S)-8-(6-amino-5-((2-(trifluoromethyl)pyridin-3-yl)thio)pyrazin-2-yl)-2,2-difluoro-8-azaspiro[4.5]decan-1-amine], 306 nM; that for `Nc1cccc(Sc2ncc(N3CCC4(CCC[C@H]4N)CC3)nc2N)c1Cl` [Example 32, (R)-8-(6-amino-5-((3-amino-2-chlorophenyl)thio)pyrazin-2-yl)-8-azaspiro[4.5]decan-1-amine], 11 nM.
Still for that read-out and setting: the result for `C[C@H]1CCC2(CCN(c3cnc(Sc4cccnc4C(F)(F)F)c(N)n3)CC2)[C@@H]1N` (single isomer, unassigned) [Example 86a] reads 10 nM; that for `Nc1nc(N2CCC3(CC2)C(N)CCS3(=O)=O)cnc1Sc1cccc(Cl)c1Cl` (stereo not shown) [Example 19], 4090 nM.
In turn, `C[C@@H]1CCC2(CCN(c3cnc(Sc4ccnc(N)c4Cl)c(N)n3)CC2)[C@@H]1N` [Example 56] showed an IC50 under setting [1] of 9 nM.
Compound `CN[C@@H]1C[C@H](O)CC12CCN(c1cnc(Sc3cccnc3C(F)(F)F)c(N)n1)CC2` [Example 49] returned an IC50 under setting [1] of 234 nM.
Same read-out and setting: the result for `Nc1nc(N2CCC3(CCCCC3N)CC2)cnc1Sc1cccc(Cl)c1Cl` (stereo not shown) [Example 4] reads 32 nM; that for `C[C@@H]1CCC2(CCN(c3cnc(Sc4cccnc4C(F)(F)F)c(N)n3)CC2)[C@@H]1N` (single isomer, unassigned) [Example 86b], 10 nM.
Turning to `CC1CCC2(CCN(c3cnc(Sc4cccnc4C(F)(F)F)c(N)n3)CC2)[C@@H]1N` (stereo partly drawn) [Example 86a/b, (1R)-8-(6-amino-5-((2-(trifluoromethyl)pyridin-3-yl)thio)pyrazin-2-yl)-2-methyl-8-azaspiro[4.5]decan-1-amine], the IC50 (unit given as M, TFA salt before chiral separation) stood at 1 nM.
Take `Nc1nc(N2CCC3(CC[C@@H]3N)CC2)cnc1Sc1ccnc(N)c1Cl` [Example 27]: 42 nM corresponded to half-maximal inhibition under setting [1] (IC50).
The same measure, in the same setting: with `Nc1nc(N2CCC3(CCC[C@H]3N)CC2)cnc1Sc1ccnc(F)c1Cl` [Example 33, (R)-8-(6-amino-5-((3-chloro-2-fluoropyridin-4-yl)thio)pyrazin-2-yl)-8-azaspiro[4.5]decan-1-amine] the figure was 5 nM; with `Nc1nc(N2CCC3(CC2)COC[C@H]3N)cnc1Sc1ccnc(N)c1Cl` [Example 52], 7 nM; with `Nc1nc(N2CCC3(CCC[C@H]3N)CC2)cnc1Sc1cc(F)ncc1Cl` [Example 65], 310 nM.
In the case of `NC(=O)c1nc(Sc2ccnc(C(F)(F)F)c2Cl)c(N)nc1N1CCC2(CCC[C@H]2N)CC1` [Example 25, (R)-5-amino-3-(1-amino-8-azaspiro[4.5]decan-8-yl)-6-((3-chloro-2-(trifluoromethyl)pyridin-4-yl)thio)pyrazine-2-carboxamide], the IC50 under setting [1] was determined as 58 nM.
On the same count and under the same terms, the result for `Nc1nc(N2CCC3(CC2)OCC[C@H]3N)cnc1Sc1cccnc1C(F)(F)F` [Example 5] reads 349 nM.
The same measure, in the same setting: with `Nc1nc(N2CCC3(CC2)CCC(F)(F)C3N)cnc1Sc1cccnc1C(F)(F)F` (racemic) [Example 82, racemic-8-(6-amino-5-((2-(trifluoromethyl)pyridin-3-yl)thio)pyrazin-2-yl)-2,2-difluoro-8-azaspiro[4.5]decan-1-amine] the figure was 380 nM.

In general, IC50 refers to the point on the concentration scale where inhibition reaches its midpoint.
